Results from patent US20250144067A1, “PERSONALIZED STARVATION THERAPY FOR CANCER” (Faeth Therapeutics, Inc., priority 2021, published 2025).
Where a name gives a salt, the structure may show the parent alone. Read-outs that look alike come from different tables or passages of the source.

What was measured:
[1] = tested on: NCI-H292 lung cancer cells; test: FDA drug screening, complete media vs cholesterol-free media with simvastatin (TABLE 2); assay type: cell-based, human
[2] = tested on: NCI-H292 lung cancer cells; test: FDA drug screening, complete media vs cholesterol-free media without statin (TABLE 1); assay type: cell-based, human
[3] = NCI-H292 cells, cholesterol-free media with simvastatin 0.04 μM, FDA drug library screen (TABLE 2)
[4] = NCI-H292 cells, complete media, FDA drug library screen (TABLE 2)
[5] = complete media minus cholesterol-free media + simvastatin (0.04 μM), >0 enhanced anti-cancer activity, about 0 neutral, <0 antagonist
[6] = NCI-H292 cells, FDA drug library screen, cholesterol-free media with simvastatin 0.04 μM
[7] = NCI-H292 cells, FDA drug library screen, complete media
[8] = complete media vs cholesterol-free media + simvastatin (0.04 μM), […]
[9] = Complete minus Cholesterol-free, […]
[10] = NCI-H292 cells, cholesterol-free media without statin
[11] = complete media minus cholesterol-free media + simvastatin, >0 enhanced anti-cancer activity, about 0 neutral, <0 antagonist
[12] = complete vs cholesterol-free media, greater than 0 enhanced anti-cancer activity, about 0 neutral, below 0 antagonists
[13] = NCI-H292 cells, cholesterol-free media without statin, FDA drug library screen
[14] = NCI-H292 cells, complete media, FDA drug library screen
[15] = complete media vs cholesterol-free media + simvastatin (0.04 μM), >0 enhanced anti-cancer activity, about 0 neutral, <0 antagonist
[16] = Complete minus Cholesterol-free, greater than 0 enhanced anti-cancer activity, about 0 neutral, below 0 antagonist
[17] = NCI-H292 cells, FDA drug library screen, cholesterol-free media without statin
[18] = complete vs cholesterol-free media, >0 enhanced anti-cancer activity, about 0 neutral, <0 antagonist
[19] = Complete minus Cholesterol-free, >0 enhanced anti-cancer activity, about 0 neutral, <0 antagonist
[20] = NCI-H292 cells, FDA library drug in cholesterol-free media with simvastatin 0.04 μM
[21] = NCI-H292 cells, FDA library drug in complete media
[22] = NCI-H292 cells, drug in cholesterol-free media with simvastatin 0.04 μM
[23] = NCI-H292 cells, drug in complete media

## CC(C)OC(=O)CCC/C=C\C[C@@H]1[C@@H](/C=C/[C@@H](O)COc2cccc(C(F)(F)F)c2)[C@H](O)C[C@@H]1O [Travoprost]
[1]; [3]
  Cholesterol-free media + simvastatin (0.04 μM): 0.9352
[1]; [4]
  Complete Media: 0.8818
[1]; [5]
  Difference: −0.05
[2]; Complete minus Cholesterol-free, greater than 0 enhanced anti-cancer activity, about 0 neutral, below 0 antagonists
  Difference: −1.01
[2]; NCI-H292 cells in cholesterol-free media without statin
  Cholesterol-free: 1.92
[2]; NCI-H292 cells in complete media
  Complete: 0.9075

## CN(C(=O)/C=C/c1ccoc1)[C@@H]1CC[C@@]2(O)[C@H]3Cc4ccc(O)c5c4[C@@]2(CCN3CC2CC2)[C@H]1O5 [Nalfurafine (hydrochloride)]
[1]; [6]
  Cholesterol-free media + simvastatin (0.04 μM): 1.083
[1]; [7]
  Complete Media: 0.926
[1]; [8]
  Difference: −0.16
[2]; [9]
  Difference: −0.29
[2]; [10]
  Cholesterol-free: 1.222
[2]; NCI-H292 cells, complete media
  Complete: 0.931

## O=C(Nc1ccc([N+](=O)[O-])cc1Cl)c1cc(Cl)ccc1O [Niclosamide]
[1]; [6]
  Cholesterol-free media + simvastatin (0.04 μM): 0.365
[1]; [7]
  Complete Media: 1.031
[1]; [11]
  Difference: 0.67
[2]; [10]
  Cholesterol-free: 0.9593
[2]; NCI-H292 cells, complete media
  Complete: 0.6271
[2]; [12]
  Difference: −0.33

## CC[C@@]1(O)C(=O)OCc2c1cc1n(c2=O)Cc2cc3ccccc3nc2-1 [Camptothecin]
[1]; [6]
  Cholesterol-free media + simvastatin (0.04 μM): −0.11
[1]; [7]
  Complete Media: 0.07415
[1]; complete media minus cholesterol-free media + simvastatin, […]
  Difference: 0.18
[2]; [9]
  Difference: −0.01
[2]; [13]
  Cholesterol-free: 0.0145
[2]; [14]
  Complete: 0.005875

## CCOc1ccc(Cc2cc([C@@H]3O[C@H](SC)[C@@H](O)[C@H](O)[C@H]3O)ccc2Cl)cc1 [Sotagliflozin]
[1]; [6]
  Cholesterol-free media + simvastatin (0.04 μM): 1.193
[1]; [7]
  Complete Media: 1.078
[1]; [15]
  Difference: −0.11
[2]; [16]
  Difference: −0.11
[2]; [17]
  Cholesterol-free: 1.101
[2]; [7]
  Complete: 0.9895

## CN1C(=O)/C(=C2/C(=O)Nc3ccccc32)c2ccccc21 [Meisoindigo]
[1]; [6]
  Cholesterol-free media + simvastatin (0.04 μM): 0.9145
[1]; [7]
  Complete Media: 1.461
[1]; [11]
  Difference: 0.55
[2]; [13]
  Cholesterol-free: 0.8169
[2]; [14]
  Complete: 1.238
[2]; [18]
  Difference: 0.42

## Riboflavin (phosphate sodium)
[1]; [6]
  Cholesterol-free media + simvastatin (0.04 μM): 1.127
[1]; [7]
  Complete Media: 0.9972
[1]; [15]
  Difference: −0.13
[2]; [10]
  Cholesterol-free: 1.308
[2]; NCI-H292 cells, complete media
  Complete: 0.9828
[2]; [12]
  Difference: −0.32

## COc1ccc(C(=O)N2CCN(c3ccc4c(c3)CCC(=O)N4)CC2)cc1OC [Vesnarinone]
[1]; [3]
  Cholesterol-free media + simvastatin (0.04 μM): 0.9506
[1]; [4]
  Complete Media: 0.9031
[1]; [5]
  Difference: −0.05
[2]; [13]
  Cholesterol-free: 0.9756
[2]; [14]
  Complete: 1.197
[2]; [18]
  Difference: 0.22

## CCCCCCCCN=c1ccn(CCCCCCCCCCn2ccc(=NCCCCCCCC)cc2)cc1 [Octenidine (dihydrochloride)]
[1]; [3]
  Cholesterol-free media + simvastatin (0.04 μM): −0.0001133
[1]; [4]
  Complete Media: −0.0003925
[1]; [5]
  Difference: 0.00
[2]; [19]
  Difference: 0.01
[2]; [13]
  Cholesterol-free: 0.00456
[2]; [14]
  Complete: 0.01483

## CC(=O)NS(=O)(=O)c1ccc(N)cc1 [Sulfacetamide (Sodium)]
[1]; [6]
  Cholesterol-free media + simvastatin (0.04 μM): 1.134
[1]; [7]
  Complete Media: 1.384
[1]; [11]
  Difference: 0.25
[2]; [19]
  Difference: 0.04
[2]; [13]
  Cholesterol-free: 0.8669
[2]; [14]
  Complete: 0.9047

## N=C(N)NCCCC(N)C(=O)O (racemic) [DL-Arginine]
[1]
  Cholesterol-free media + simvastatin (0.04 μM): 0.9889
  Complete Media: 0.9776
  Difference: −0.01
[2]
  Cholesterol-free: 1.525
  Complete: 1.476
  Difference: −0.05

## Abemaciclib (methanesulfonate)
[1]; [20]
  Cholesterol-free media + simvastatin (0.04 μM): 0.9262
[1]; [21]
  Complete Media: 0.6131
[1]; [15]
  Difference: −0.31
[2]; [19]
  Difference: −0.03
[2]; [13]
  Cholesterol-free: 0.6853
[2]; [14]
  Complete: 0.6534

## Cn1cnc2c(F)c(Nc3ccc(Br)cc3Cl)c(C(=O)NOCCO)cc21 [Selumetinib]
[1]; [20]
  Cholesterol-free media + simvastatin (0.04 μM): 0.7343
[1]; [21]
  Complete Media: 0.4618
[1]; [15]
  Difference: −0.27
[2]; [16]
  Difference: −0.18
[2]; [17]
  Cholesterol-free: 0.4744
[2]; [7]
  Complete: 0.2899

## Valemetostat (tosylate)
[1]; [22]
  Cholesterol-free media + simvastatin (0.04 μM): 1.195
[1]; [23]
  Complete Media: 0.9379
[1]; [8]
  Difference: −0.26
[2]; [10]
  Cholesterol-free: 1.464
[2]; NCI-H292 cells, complete media
  Complete: 1.052
[2]; complete vs cholesterol-free media, […]
  Difference: −0.41

## COc1cc2nc(N(C)CCCNC(=O)C3CCCO3)nc(N)c2cc1OC (stereo not drawn) [Alfuzosin]
[1]; [6]
  Cholesterol-free media + simvastatin (0.04 μM): 1.185
[1]; [7]
  Complete Media: 1.024
[1]; [15]
  Difference: −0.16
[2]; [16]
  Difference: −0.14
[2]; [17]
  Cholesterol-free: 0.9745
[2]; [7]
  Complete: 0.8372

## NCCCC[C@H](N[C@@H](CCc1ccccc1)C(=O)O)C(=O)N1CCC[C@H]1C(=O)O [Lisinopril (dihydrate)]
[1]; [3]
  Cholesterol-free media + simvastatin (0.04 μM): 0.94
[1]; [4]
  Complete Media: 0.9409
[1]; [5]
  Difference: 0.00
[2]; [16]
  Difference: −0.08
[2]; [17]
  Cholesterol-free: 1.734
[2]; [7]
  Complete: 1.657

## CCN(CC)CCOC(=O)C(c1ccccc1)c1ccccc1 [Adiphenine (hydrochloride)]
[1]; [20]
  Cholesterol-free media + simvastatin (0.04 μM): 1.255
[1]; [21]
  Complete Media: 0.9527
[1]; [15]
  Difference: −0.30
[2]; [19]
  Difference: −0.20
[2]; [10]
  Cholesterol-free: 1.088
[2]; NCI-H292 cells, complete media
  Complete: 0.8864

## CCCNCC(O)COc1ccccc1C(=O)CCc1ccccc1 (stereo not drawn) [Propafenone (hydrochloride)]
[1]; [3]
  Cholesterol-free media + simvastatin (0.04 μM): 1.11
[1]; [4]
  Complete Media: 1.1
[1]; [5]
  Difference: −0.01
[2]; [19]
  Difference: 0.02
[2]; [13]
  Cholesterol-free: 1.064
[2]; [14]
  Complete: 1.086

## CC1CCC(C(C)C)C(O)C1 (stereo not drawn) [Menthol]
[1]; [22]
  Cholesterol-free media + simvastatin (0.04 μM): 1.031
[1]; [23]
  Complete Media: 0.8642
[1]; [15]
  Difference: −0.17
[2]; [13]
  Cholesterol-free: 0.9443
[2]; [14]
  Complete: 1.129
[2]; [18]
  Difference: 0.19

## CO[C@H]1/C=C/O[C@@]2(C)Oc3c(C)c([O-])c4c(O)c(cc(O)c4c3C2=O)NC(=O)/C(C)=C\C=C\[C@H](C)[C@H](O)[C@@H](C)[C@@H](O)[C@@H](C)[C@H](OC(C)=O)[C@@H]1C.[Na+] [Rifamycin (sodium)]
[1]; [20]
  Cholesterol-free media + simvastatin (0.04 μM): 1.045
[1]; [21]
  Complete Media: 0.7505
[1]; [15]
  Difference: −0.29
[2]; [10]
  Cholesterol-free: 2.314
[2]; NCI-H292 cells, complete media
  Complete: 1.878
[2]; [12]
  Difference: −0.44

## CCOC(=O)C1=C(C)NC(C)=C(C(=O)OC)C1c1cccc([N+](=O)[O-])c1 (stereo not drawn) [Nitrendipine]
[1]; [3]
  Cholesterol-free media + simvastatin (0.04 μM): 1.103
[1]; [4]
  Complete Media: 1.042
[1]; [5]
  Difference: −0.06
[2]; [10]
  Cholesterol-free: 1.587
[2]; NCI-H292 cells, complete media
  Complete: 1.208
[2]; [12]
  Difference: −0.38

## CO[C@@]1(NC(=O)C2SC(=C(C(N)=O)C(=O)O)S2)C(=O)N2C(C(=O)O)=C(CSc3nnnn3C)CS[C@@H]21 (stereo partly drawn) [Cefotetan]
[1]; [22]
  Cholesterol-free media + simvastatin (0.04 μM): 1.2
[1]; [23]
  Complete Media: 1.027
[1]; [15]
  Difference: −0.17
[2]; [19]
  Difference: −0.26
[2]; [10]
  Cholesterol-free: 1.196
[2]; NCI-H292 cells, complete media
  Complete: 0.9309

## OC[C@H]1OC(O)[C@H](O)[C@@H](O)[C@@H]1O (stereo partly drawn) [D-Glucose]
[1]; [22]
  Cholesterol-free media + simvastatin (0.04 μM): 0.822
[1]; [23]
  Complete Media: 0.5991
[1]; [15]
  Difference: −0.22
[2]; [19]
  Difference: −0.06
[2]; [13]
  Cholesterol-free: 0.3615
[2]; [14]
  Complete: 0.3017
